Source: the NIST ThermoML archive (doi:10.1021/acs.jced.7b01053)
Where “and” joins values, the source holds several entries; their conditions need not be identical. Equal values may be shown once.

Experiment: mn = molality of the nth substance listed, in mol/kg
Conditions: 293 K, 100 kPa, Liquid, Alternating current cell with electrodes

CCCCC(=O)O.OCCNCCO [diethanolamine pentanoate] + O
Conditions | electrical conductivity [S/m]
m1 = 0.01462 | 0.055
m1 = 0.01705 | 0.064
m1 = 0.03093 | 0.108
m1 = 0.03218 | 0.116
m1 = 0.04874 | 0.161
m1 = 0.0491 | 0.168
m1 = 0.06476 | 0.204
m1 = 0.06559 | 0.215
m1 = 0.08109 | 0.279
m1 = 0.08267 | 0.268
m1 = 0.09793 | 0.328
m1 = 0.09939 | 0.312
m1 = 0.1159 | 0.375
m1 = 0.117 | 0.365
m1 = 0.1326 | 0.42
m1 = 0.133 | 0.408
m1 = 0.1488 | 0.449
m1 = 0.1507 | 0.47
m1 = 0.163 | 0.486
m1 = 0.1668 | 0.512
m1 = 0.1779 | 0.524
m1 = 0.1838 | 0.557
m1 = 0.1916 | 0.526
m1 = 0.1994 | 0.595
m1 = 0.2058 | 0.558
m1 = 0.2152 | 0.634
m1 = 0.2197 | 0.593
m1 = 0.2297 | 0.669
m1 = 0.2336 | 0.624
m1 = 0.2447 | 0.706
m1 = 0.2467 | 0.655
m1 = 0.2584 | 0.739
m1 = 0.26 | 0.685
m1 = 0.2721 | 0.767
m1 = 0.2723 | 0.711
m1 = 0.2848 | 0.739
m1 = 0.2851 | 0.795
m1 = 0.2965 | 0.755
m1 = 0.2976 | 0.822
m1 = 0.3079 | 0.789
m1 = 0.3096 | 0.848
m1 = 0.3188 | 0.811
m1 = 0.3214 | 0.874
m1 = 0.3321 | 0.896
m1 = 0.3396 | 0.835
m1 = 0.3428 | 0.918
m1 = 0.3494 | 0.854
m1 = 0.3527 | 0.94
m1 = 0.3585 | 0.876
m1 = 0.3625 | 0.96
m1 = 0.3675 | 0.893
m1 = 0.3716 | 0.979
m1 = 0.376 | 0.914
m1 = 0.3806 | 0.999
m1 = 0.3844 | 0.925
m1 = 0.389 | 1.01
m1 = 0.3921 | 0.925
m1 = 0.3973 | 1.03
m1 = 0.3997 | 0.925
m1 = 0.4069 | 0.973
m1 = 0.4446 | 0.991

CCCC(=O)[O-].C[NH2+]CCO [N-methyl-2-hydroxyethylammonium butanoate] + O
Conditions | electrical conductivity [S/m]
m1 = 0.01443 | 0.041
m1 = 0.01609 | 0.047
m1 = 0.03059 | 0.077
m1 = 0.03161 | 0.084
m1 = 0.04718 | 0.115
m1 = 0.04851 | 0.122
m1 = 0.06311 | 0.149
m1 = 0.06401 | 0.155
m1 = 0.08077 | 0.185
m1 = 0.08176 | 0.189
m1 = 0.09698 | 0.232
m1 = 0.09705 | 0.235
m1 = 0.1139 | 0.268
m1 = 0.1146 | 0.267
m1 = 0.1298 | 0.298
m1 = 0.1307 | 0.297
m1 = 0.1464 | 0.324
m1 = 0.1479 | 0.328
m1 = 0.1614 | 0.35
m1 = 0.1638 | 0.355
m1 = 0.1771 | 0.372
m1 = 0.1802 | 0.383
m1 = 0.1918 | 0.395
m1 = 0.1952 | 0.408
m1 = 0.2064 | 0.42
m1 = 0.2106 | 0.434
m1 = 0.2201 | 0.44
m1 = 0.2246 | 0.456
m1 = 0.2336 | 0.46
m1 = 0.2384 | 0.478
m1 = 0.2466 | 0.48
m1 = 0.2514 | 0.496
m1 = 0.2596 | 0.498
m1 = 0.2644 | 0.516
m1 = 0.2712 | 0.513
m1 = 0.2766 | 0.528
m1 = 0.283 | 0.525
m1 = 0.2887 | 0.542
m1 = 0.294 | 0.54
m1 = 0.2998 | 0.558
m1 = 0.3048 | 0.556
m1 = 0.311 | 0.572
m1 = 0.3148 | 0.571
m1 = 0.3214 | 0.586
m1 = 0.3247 | 0.583
m1 = 0.3317 | 0.6
m1 = 0.334 | 0.596
m1 = 0.3412 | 0.611
m1 = 0.343 | 0.607
m1 = 0.3505 | 0.624
m1 = 0.3515 | 0.619
m1 = 0.3593 | 0.634
m1 = 0.3599 | 0.629
m1 = 0.3677 | 0.639
m1 = 0.3679 | 0.646
m1 = 0.3758 | 0.656

CCCC(=O)O.OCCNCCO [diethanolamine butyrate] + O
Conditions | electrical conductivity [S/m]
m1 = 0.01798 | 0.077
m1 = 0.01805 | 0.09
m1 = 0.03516 | 0.166
m1 = 0.03577 | 0.142
m1 = 0.05397 | 0.257
m1 = 0.05531 | 0.207
m1 = 0.0709 | 0.318
m1 = 0.07433 | 0.284
m1 = 0.09407 | 0.346
m1 = 0.09424 | 0.389
m1 = 0.1085 | 0.453
m1 = 0.1122 | 0.403
m1 = 0.1275 | 0.519
m1 = 0.1316 | 0.486
m1 = 0.1455 | 0.581
m1 = 0.1496 | 0.538
m1 = 0.1638 | 0.641
m1 = 0.1683 | 0.577
m1 = 0.1807 | 0.696
m1 = 0.186 | 0.597
m1 = 0.1982 | 0.75
m1 = 0.2035 | 0.651
m1 = 0.2144 | 0.801
m1 = 0.2203 | 0.694
m1 = 0.231 | 0.87
m1 = 0.237 | 0.725
m1 = 0.2464 | 0.912
m1 = 0.2525 | 0.764
m1 = 0.2616 | 0.954
m1 = 0.2679 | 0.782
m1 = 0.2758 | 0.994
m1 = 0.2824 | 0.821
m1 = 0.2899 | 1.03
m1 = 0.297 | 0.862
m1 = 0.3032 | 1.06
m1 = 0.3106 | 0.908
m1 = 0.3162 | 1.1
m1 = 0.324 | 0.95
m1 = 0.3283 | 1.13
m1 = 0.3321 | 0.98
m1 = 0.3402 | 1.16
m1 = 0.3438 | 1
m1 = 0.3514 | 1.19
m1 = 0.3555 | 1.02
m1 = 0.3623 | 1.22
m1 = 0.3665 | 1.05
m1 = 0.3726 | 1.24
m1 = 0.3774 | 1.05
m1 = 0.3826 | 1.27
m1 = 0.3875 | 1.07
m1 = 0.3917 | 1.29
m1 = 0.3975 | 1.1
m1 = 0.4022 | 1.32
m1 = 0.4068 | 1.12
m1 = 0.4115 | 1.35
m1 = 0.416 | 1.14
m1 = 0.4201 | 1.38
m1 = 0.4245 | 1.16
m1 = 0.4284 | 1.4
m1 = 0.433 | 1.18
m1 = 0.4368 | 1.43
m1 = 0.4446 | 1.45

CC(=O)[O-].[NH3+]CCO [2-hydroxyethylammonium acetate] + O
Conditions | electrical conductivity [S/m]
m1 = 0.02015 | 0.13
m1 = 0.0241 | 0.138
m1 = 0.03983 | 0.262
m1 = 0.04796 | 0.274
m1 = 0.05774 | 0.359
m1 = 0.07416 | 0.45
m1 = 0.07452 | 0.4
m1 = 0.09015 | 0.539
m1 = 0.09982 | 0.512
m1 = 0.1057 | 0.618
m1 = 0.1213 | 0.702
m1 = 0.1267 | 0.628
m1 = 0.1356 | 0.775
m1 = 0.1485 | 0.835
m1 = 0.1519 | 0.737
m1 = 0.1621 | 0.9
m1 = 0.1743 | 0.958
m1 = 0.1778 | 0.847
m1 = 0.1867 | 1.02
m1 = 0.2004 | 1.08
m1 = 0.2025 | 0.95
m1 = 0.2157 | 1.14
m1 = 0.2285 | 1.06
m1 = 0.2326 | 1.21
m1 = 0.2502 | 1.29
m1 = 0.2521 | 1.16
m1 = 0.2691 | 1.37
m1 = 0.2755 | 1.23
m1 = 0.2868 | 1.44
m1 = 0.2977 | 1.33
m1 = 0.3032 | 1.44
m1 = 0.3189 | 1.48
m1 = 0.3199 | 1.42
m1 = 0.3337 | 1.56
m1 = 0.3404 | 1.49
m1 = 0.3476 | 1.61
m1 = 0.3609 | 1.61
m1 = 0.3615 | 1.57
m1 = 0.3811 | 1.64
m1 = 0.3855 | 1.75
m1 = 0.4003 | 1.72
m1 = 0.4075 | 1.86
m1 = 0.4184 | 1.77
m1 = 0.4279 | 1.93
m1 = 0.4359 | 1.83
m1 = 0.4463 | 1.98
m1 = 0.4526 | 1.87
m1 = 0.4627 | 2.03
m1 = 0.4642 | 1.9
m1 = 0.4774 | 2.08
m1 = 0.4797 | 1.94
m1 = 0.4943 | 1.99
m1 = 0.5085 | 2.04
m1 = 0.5221 | 2.09
m1 = 0.5351 | 2.13
m1 = 0.5473 | 2.17
m1 = 0.5594 | 2.23
m1 = 0.5705 | 2.27

CC(=O)[O-].C[NH2+]CCO [N-methyl-2-hydroxyethylammonium acetate] + O
Conditions | electrical conductivity
m1 = 0.01579 | 0.077 S/m
m1 = 0.01797 | 0.09 S/m
m1 = 0.03269 | 0.14 S/m
m1 = 0.03539 | 0.162 S/m
m1 = 0.05165 | 0.21 S/m
m1 = 0.05369 | 0.236 S/m
m1 = 0.06943 | 0.29 S/m
m1 = 0.07132 | 0.318 S/m
m1 = 0.08822 | 0.356 S/m
m1 = 0.09023 | 0.385 S/m
m1 = 0.1063 | 0.507 S/m
m1 = 0.1084 | 0.453 S/m
m1 = 0.1255 | 0.561 S/m
m1 = 0.1264 | 0.551 S/m
m1 = 0.1433 | 0.607 S/m
m1 = 0.1458 | 0.612 S/m
m1 = 0.162 | 0.66 S/m
m1 = 0.1641 | 0.665 S/m
m1 = 0.1793 | 0.705 S/m
m1 = 0.1809 | 0.713 S/m
m1 = 0.1972 | 0.75 S/m
m1 = 0.1983 | 0.762 S/m
m1 = 0.2133 | 0.804 S/m
m1 = 0.2134 | 0.787 S/m
m1 = 0.2303 | 0.833 S/m
m1 = 0.2308 | 0.838 S/m
m1 = 0.2458 | 0.87 S/m
m1 = 0.246 | 0.877 S/m
m1 = 0.2615 | 0.899 S/m
m1 = 0.2616 | 0.861 S/m
m1 = 0.276 | 0.893 S/m
m1 = 0.2762 | 0.942 S/m
m1 = 0.2904 | 0.926 S/m
m1 = 0.2909 | 0.968 S/m
m1 = 0.3042 | 0.957 S/m
m1 = 0.3044 | 0.998 S/m
m1 = 0.3175 | 1.01 S/m
m1 = 0.3178 | 1.03 S/m
m1 = 0.3298 | 1.04 S/m
m1 = 0.3302 | 1.04 S/m
m1 = 0.3422 | 1.07 S/m
m1 = 0.3425 | 1.08 S/m
m1 = 0.354 | 1.11 S/m
m1 = 0.3542 | 1.1 S/m
m1 = 0.3654 | 1.13 S/m and 1.12 S/m
m1 = 0.376 | 1.16 S/m
m1 = 0.3765 | 1.15 S/m
m1 = 0.3868 | 1.17 S/m
m1 = 0.3967 | 1.19 S/m
m1 = 0.4065 | 1.21 S/m
m1 = 0.4155 | 1.24 S/m
m1 = 0.4245 | 1.27 S/m
